The nature of assay [1]: Inhibition of Trypanosoma brucei LeuRS assessed as formation of stable tRNA(Leu)-compound adduct in editing site of enzyme.
In a further assay the test system is Trypanosoma brucei. In words: Antiparasitic activity against Trypanosoma brucei […]. The assay is classed as functional, organism-based.
Another assay concerns L929. The assay can be described thus: Cytotoxicity against mouse L929 cells. Type of assay: cell-based.
In the next assay the test system is Leishmania braziliensis. In words: Antiparasitic activity against promastigote stage of Leishmania braziliensis MHOM/BR/2001/BA788 infected in BALB/c mouse assessed as reduction in parasite load at 20 mg/kg, ip administered for 15 days measured after 6 weeks by limiting dillution method. Type of assay: functional. Further details: scale not given: the % may be the effect or the level left.

Assay [2] relates to Leishmania chagasi. In words: Antiparasitic activity against amastigote stage of Leishmania chagasi MHOM/BR/1972/LD infected in golden hamster assessed as reduction in parasite load at 20 mg/kg, ip administered for 15 days measured after 4 weeks by limiting dillution method. The assay is classed as functional. Further details: scale not given: the % may be the effect or the level left.

Assay [3] deals with Leishmania chagasi. The assay can be described thus: Antiparasitic activity against amastigote stage of Leishmania chagasi MHOM/BR/1972/LD infected in golden hamster assessed as golden hamster survival rate at 20 mg/kg, ip after 18 weeks by limiting dillution method. The assay is classed as functional.
Assay [4] has as its system Brugia pahangi. In words: Antifilarial activity against Brugia pahangi infected in gerbils assessed as reduction in worm burden at 5 mg/kg, bid in weekdays for 28 days. The assay is classed as functional, organism-based. Also noted: scale not given: the % may be the effect or the level left.
For assay [5], the system named is Brugia pahangi. In words: Antifilarial activity against Brugia pahangi infected in gerbils assessed as reduction in worm burden at 5 mg/kg, sid in weekends for 28 days. Further details: scale not given: the % may be the effect or the level left. Type of assay: functional, organism-based.
Assay [6] is described as follows: Selectivity ratio of IC50 for Onchocerca ochengi to IC50 for microfilariae of Loa loa. Type of assay: functional.

Experimental findings from ChEMBL document CHEMBL3797071, “Repurposing strategies for tropical disease drug discovery” (Bioorg Med Chem Lett, 2016) are described below.

Broadly, the pIC50 is the negative decadic logarithm of the IC50, by convention in mol/L. Broadly, the pEC50 is the EC50 on a negative log10 scale, so that one unit is a factor of ten.

pEC50, pIC50: −log10 of the molar value. Some results are limits rather than exact numbers.

Take `CCOC(=O)COc1ccc2c(c1)B(O)OC2`: the pIC50 in [1] was 5.46. For the same molecule, the pEC50 is 6.14 in the assay on Trypanosoma brucei and under 4.40 in the assay on L929.
Consider `CC(=O)C(C)(C)Oc1ccc2c(c1)B(O)OC2`, for which, in assay [1], the pIC50 is 5.30. Moreover, the values for the pEC50 in the assay with Trypanosoma brucei and in the assay on L929 were 6.43 and under 4.40, respectively.
Regarding `CC/C(=C(\c1ccccc1)c1ccc(OCCN(C)C)cc1)c1ccccc1` [TAMOXIFEN], the results for the Activity with Leishmania braziliensis, with Leishmania chagasi [2] and in the assay on Leishmania chagasi [3] were 95%, 95% and 100%, respectively.
Turning to `OB1OCc2cc(F)ccc21` [TAVABOROLE], the pIC50 in [1] is 4.66.
AURANOFIN: the Activity in the assay with Brugia pahangi [4] came out at 58%; in the assay with Brugia pahangi [5] it was 91%. Moreover, the Ratio IC50 in assay [6] is 43.
